Source: US9725459B2, “3-oxo-tetrahydro-furo[3,2-B]pyrrol-4(5H)-yl) derivatives I” (GRÜNENTHAL GMBH, priority 2014, dated 2017)
Where two headings read alike, the source gives them in different places.

How the values were obtained:
Assay type in all cases: biochemical
[1] = target: human cathepsin K (CatK) (Homo sapiens (Human), UniProt P43235); experiment: CatK functional enzyme assay; details: recombinant human CatK, substrate Z-FR-AMC 40 μM, pH 5.5; Ki by Cheng Prusoff equation; read-out: hCatK, Ki
Sequence of human cathepsin K (CatK) (P43235 115-329): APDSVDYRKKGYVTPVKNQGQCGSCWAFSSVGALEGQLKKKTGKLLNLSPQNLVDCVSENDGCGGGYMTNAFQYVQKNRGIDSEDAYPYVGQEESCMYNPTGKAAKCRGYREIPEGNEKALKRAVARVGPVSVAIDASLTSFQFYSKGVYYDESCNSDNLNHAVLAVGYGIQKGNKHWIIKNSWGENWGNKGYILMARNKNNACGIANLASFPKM
Experimental: (§1) Reference and test compounds were assayed for inhibitory potency (IC50) against human cathepsins using the following assay setups:
(§2) Recombinant human cathepsins (CatS, CatK, CatL) were purchased from a Enzo Life Sciences. All assays were carried out in 96-well format using a buffer of 50 mM KH2PO4, 50 mM NaCl, 2 mM EDTA, 0.5 mM DTT and 1% Triton-X-100, pH 6.5 for Cathepsin S and a buffer of 50 mM NaOAc, 10 mM EDTA, 1 mM DTT and 0.01% Triton-X-100, pH 5.5 for CatK/L/B. For CatS, the enzyme (0.0007 mU/well) was incubated with fluorogeninc substrate (Z-VVR-AMC, 5 μM) at RT for 10 min. For CatK the enzyme (0.00175 mU/well) was incubated with fluorogeninc substrate (Z-FR-AMC, 40 μM) at RT for 10 min. For CatL, the enzyme (0.000874 mU/well) was incubated with fluorogeninc substrate (Z-VVR-AMC, 40 μM) at RT for 10 min. Flourogenic substrate turnover was detected using a microplate reader (Synergy™ H4, BioTek). Ki values were calculated using the Cheng Prusoff equation (Cheng & Prosoff 1973).

[2] = target: human cathepsin S (CatS) (Homo sapiens (Human), UniProt P25774); experiment: CatS functional enzyme assay; details: for Selectivity Ki(hCatS)/Ki(hCatK): ratio Ki(hCatS)/Ki(hCatK); for Ki: read-out: hCatS, Ki
Sequence of human cathepsin S (CatS) (P25774 115-331): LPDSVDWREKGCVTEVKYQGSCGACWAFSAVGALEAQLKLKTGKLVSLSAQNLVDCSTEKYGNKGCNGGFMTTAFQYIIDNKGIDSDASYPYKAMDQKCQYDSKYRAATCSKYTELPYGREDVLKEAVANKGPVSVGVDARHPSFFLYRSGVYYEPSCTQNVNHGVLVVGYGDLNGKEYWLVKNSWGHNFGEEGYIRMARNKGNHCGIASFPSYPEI
Experimental: as §2, with “Reference and test compounds were assayed for inhibitory potency (IC50) against human cathepsins using the following assay setups: Recombinant” for “Recombinant”, “All assays were carried out in 96-well format using a buffer of 50 mM KH2PO4, 50 mM NaCl, 2 mM EDTA, 0.5 mM DTT and 1% Triton-X-100, pH 6.5 for Cathepsin S and a buffer of 50 mM NaOAc, 10 mM EDTA, 1 mM DTT and 0.01% Triton-X-100, pH 5.5 for CatK/L/B.” left out

[3] = target: human cathepsin L (CatL) (Homo sapiens (Human), UniProt P07711); experiment: CatL functional enzyme assay; details: read-out: hCatL, inhibition [%] at 31.6 μM
Sequence of human cathepsin L (CatL) (P07711 114-333): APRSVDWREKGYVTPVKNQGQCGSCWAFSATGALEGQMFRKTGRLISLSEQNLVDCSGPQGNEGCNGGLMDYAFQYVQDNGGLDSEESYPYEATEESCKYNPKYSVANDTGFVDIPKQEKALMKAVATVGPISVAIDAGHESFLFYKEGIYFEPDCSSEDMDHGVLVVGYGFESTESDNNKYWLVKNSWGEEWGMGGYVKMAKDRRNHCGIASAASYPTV
Experimental: as §1, §2

[4] = recombinant human CatS, substrate Z-VVR-AMC 5 μM, pH 6.5, Ki by Cheng Prusoff equation

Row | Compound | Ki [1] | Selectivity Ki(hCatS)/Ki(hCatK) [2] | Ki [2, 4] | inhibition at 31.6 µM [3] | Ki [2]
1 | N#Cc1cncc(-c2cnc(C(=O)N[C@H](C(=O)N3C[C@H](Cl)[C@H]4OCC(=O)[C@H]43)C3CCCCC3)s2)c1 [Example 43, N-((S)-2-((3aS,6S,6aS)-6-chloro-3-oxotetrahydro-2H-furo[3,2-b]pyrrol-4(5H)-yl)-1-cyclohexyl-2-oxoethyl)-5-(5-cyanopyridin-3-yl)thiazole-2-carboxamide] | 243 nM | 3.2 | 769 nM | 16% | 
2 | O=C(N[C@H](C(=O)N1C[C@H](Cl)[C@H]2OCC(=O)[C@H]21)C1CCCCC1)c1ccc(-c2cncnc2)o1 [Example 11, N-((S)-2-((3aS,6S,6aS)-6-chloro-3-oxotetrahydro-2H-furo[3,2-b]pyrrol-4(5H)-yl)-1-cyclohexyl-2-oxoethyl)-5-(pyrimidin-5-yl)furan-2-carboxamide] | 87 nM | 1.1 | 99 nM | 14% | 
3 | COc1cc(-c2ccc(C(=O)N[C@H](C(=O)N3C[C@H](Cl)[C@H]4OCC(=O)[C@H]43)C3CCCCC3)s2)cnn1 [Example 71, N-((S)-2-((3aS,6S,6aS)-6-chloro-3-oxotetrahydro-2H-furo[3,2-b]pyrrol-4(5H)-yl)-1-cyclohexyl-2-oxoethyl)-5-(6-methoxypyridazin-4-yl)thiophene-2-carboxamide] | 8 nM | 3.0 | 23 nM | 32% | 
4 | Cc1ncc(-c2cnc(C(=O)N[C@H](C(=O)N3C[C@H](Cl)[C@H]4OCC(=O)[C@H]43)C3CCCCC3)s2)cn1 [Example 41, N-((S)-2-((3aS,6S,6aS)-6-chloro-3-oxotetrahydro-2H-furo[3,2-b]pyrrol-4(5H)-yl)-1-cyclohexyl-2-oxoethyl)-5-(2-methylpyrimidin-5-yl)thiazole-2-carboxamide] | 26 nM |  | 144 nM | 25% | 
5 | O=C(N[C@H](C(=O)N1C[C@H](Cl)[C@H]2OCC(=O)[C@H]21)C1CCCCC1)c1ccc(-c2ccc(C3CC3)nc2)s1 [Example 63, N-((S)-2-((3aS,6S,6aS)-6-chloro-3-oxotetrahydro-2H-furo[3,2-b]pyrrol-4(5H)-yl)-1-cyclohexyl-2-oxoethyl)-5-(6-cyclopropylpyridin-3-yl)thiophene-2-carboxamide] | 19 nM | 27.6 | 525 nM | 1% | 
6 | O=C(N[C@H](C(=O)N1C[C@H](Cl)[C@H]2OCC(=O)[C@H]21)C1CCCCC1)c1ccc(-c2ccccn2)s1 [Example 1, N-((S)-2-((3aS,6S,6aS)-6-chloro-3-oxotetrahydro-2H-furo[3,2-b]pyrrol-4(5H)-yl)-1-cyclohexyl-2-oxoethyl)-5-(pyridin-2-yl)thiophene-2-carboxamide] | 14 nM | 28.7 |  | 3% | 402 nM
7 | N#Cc1cncc(-c2ccc(C(=O)N[C@H](C(=O)N3C[C@H](Cl)[C@H]4OCC(=O)[C@H]43)C3CCCCC3)s2)c1 [Example 39, N-((S)-2-((3aS,6S,6aS)-6-chloro-3-oxotetrahydro-2H-furo[3,2-b]pyrrol-4(5H)-yl)-1-cyclohexyl-2-oxoethyl)-5-(5-cyanopyridin-3-yl)thiophene-2-carboxamide] | 19 nM | 11.8 | 225 nM | 19% | 
8 | CCc1cc(-c2cnc(C(=O)N[C@H](C(=O)N3C[C@H](Cl)[C@H]4OCC(=O)[C@H]43)C3CCCCC3)s2)ccn1 [Example 87, N-((S)-2-((3aS,6S,6aS)-6-chloro-3-oxotetrahydro-2H-furo[3,2-b]pyrrol-4(5H)-yl)-1-cyclohexyl-2-oxoethyl)-5-(2-ethylpyridin-4-yl)thiazole-2-carboxamide] | 4 nM | 16.2 | 59 nM | 14% | 
9 | CCc1cc(-c2ccc(C(=O)N[C@H](C(=O)N3C[C@H](Cl)[C@H]4OCC(=O)[C@H]43)C3CCCCC3)s2)cnn1 [Example 85, N-((S)-2-((3aS,6S,6aS)-6-chloro-3-oxotetrahydro-2H-furo[3,2-b]pyrrol-4(5H)-yl)-1-cyclohexyl-2-oxoethyl)-5-(6-ethylpyridazin-4-yl)thiophene-2-carboxamide] | 5 nM | 1.1 | 6 nM | 14% | 
10 | O=C(N[C@H](C(=O)N1C[C@H](Cl)[C@H]2OCC(=O)[C@H]21)C1CCCCC1)c1ccc(-c2cc(C3CC3)cnn2)s1 [Example 74, N-((S)-2-((3aS,6S,6aS)-6-chloro-3-oxotetrahydro-2H-furo[3,2-b]pyrrol-4(5H)-yl)-1-cyclohexyl-2-oxoethyl)-5-(5-cyclopropylpyridazin-3-yl)thiophene-2-carboxamide] | 22 nM | 0.3 | 7 nM | 19% | 
11 | Cc1cc(-c2ccc(C(=O)N[C@H](C(=O)N3C[C@H](Cl)[C@H]4OCC(=O)[C@H]43)C3CCCCC3)s2)ccn1 [Example 33, N-((S)-2-((3aS,6S,6aS)-6-chloro-3-oxotetrahydro-2H-furo[3,2-b]pyrrol-4(5H)-yl)-1-cyclohexyl-2-oxoethyl)-5-(2-methylpyridin-4-yl)thiophene-2-carboxamide] | 4 nM | 21.5 | 86 nM | 12% | 
12 | O=C(N[C@H](C(=O)N1C[C@H](Cl)[C@H]2OCC(=O)[C@H]21)C1CCCCC1)c1ccc(-c2cnc(C(F)(F)F)nc2)s1 [Example 61, N-((S)-2-((3aS,6S,6aS)-6-chloro-3-oxotetrahydro-2H-furo[3,2-b]pyrrol-4(5H)-yl)-1-cyclohexyl-2-oxoethyl)-5-(2-(trifluoromethyl)pyrimidin-5-yl)thiophene-2-carboxamide] | 76 nM | 4.0 | 302 nM | 0% | 
13 | Cc1ccc(-c2cnc(C(=O)N[C@H](C(=O)N3C[C@H](Cl)[C@H]4OCC(=O)[C@H]43)C3CCCCC3)s2)cn1 [Example 42, N-((S)-2-((3aS,6S,6aS)-6-chloro-3-oxotetrahydro-2H-furo[3,2-b]pyrrol-4(5H)-yl)-1-cyclohexyl-2-oxoethyl)-5-(6-methylpyridin-3-yl)thiazole-2-carboxamide] | 14 nM | 25.4 | 356 nM | 18% | 
14 | O=C(N[C@H](C(=O)N1C[C@H](Cl)[C@H]2OCC(=O)[C@H]21)C1CCCCC1)c1ncc(-c2ccccn2)s1 [Example 46, N-((S)-2-((3aS,6S,6aS)-6-chloro-3-oxotetrahydro-2H-furo[3,2-b]pyrrol-4(5H)-yl)-1-cyclohexyl-2-oxoethyl)-5-(pyridin-2-yl)thiazole-2-carboxamide] | 9 nM | 45.9 | 413 nM | 6% | 
15 | O=C(N[C@H](C(=O)N1C[C@H](Cl)[C@H]2OCC(=O)[C@H]21)C1CCCCC1)c1ncc(-c2cncc(F)c2)s1 [Example 47, N-((S)-2-((3aS,6S,6aS)-6-chloro-3-oxotetrahydro-2H-furo[3,2-b]pyrrol-4(5H)-yl)-1-cyclohexyl-2-oxoethyl)-5-(5-fluoropyridin-3-yl)thiazole-2-carboxamide] | 20 nM | 11.1 | 221 nM | 28% | 
16 | O=C(N[C@H](C(=O)N1C[C@H](Cl)[C@H]2OCC(=O)[C@H]21)C1CCCCC1)c1sc(-c2cncnc2)cc1F [Example 53, N-((S)-2-((3aS,6S,6aS)-6-chloro-3-oxotetrahydro-2H-furo[3,2-b]pyrrol-4(5H)-yl)-1-cyclohexyl-2-oxoethyl)-3-fluoro-5-(pyrimidin-5-yl)thiophene-2-carboxamide] | 34 nM | 8.9 | 302 nM | 40% | 
17 | Cc1ncccc1-c1ccc(C(=O)N[C@H](C(=O)N2C[C@H](Cl)[C@H]3OCC(=O)[C@H]32)C2CCCCC2)s1 [Example 83, N-((S)-2-((3aS,6S,6aS)-6-chloro-3-oxotetrahydro-2H-furo[3,2-b]pyrrol-4(5H)-yl)-1-cyclohexyl-2-oxoethyl)-5-(2-methylpyridin-3-yl)thiophene-2-carboxamide] | 7 nM | 44.0 | 296 nM | 1% | 
